# “Also recorded” adds a separate entry of the source. Like-named read-outs stand apart in the source and are kept apart here.
# Tests used:
# [1] = tested on: Staphylococcus aureus NCTC 13373 (mecA-positive; methicillin-resistant); experiment: In vitro antibacterial activity, MIC (UCL School of Pharmacy assay), MRSA; type: cell-based; settings: for MIC: Staphylococcus aureus
# Outline: (§1)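 Broth microdilution in isosensitest broth; inoculum from overnight tryptone soya agar culture adjusted to A600 0.1 (~1 × 10^8 CFU/mL) then diluted 1:100. Compounds tested as 2-fold series, 32 to 0.03 μg/mL, DMSO at most 2%; vancomycin as quality control.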
# [2] = tested on: S. aureus ATCC 25923 (methicillin-susceptible); experiment: In vitro antibacterial activity, MIC (UCL), MSSA; type: cell-based, Staphylococcus aureus; settings: for MIC: Staphylococcus aureus
# Outline: as §1
# [3] = tested on: Enterococcus faecalis ATCC 51299 (vanA-positive; vancomycin-resistant); experiment: In vitro antibacterial activity, MIC (UCL), VRE; type: cell-based
# Outline: as §1
# [4] = tested on: MRC-5SV2 (human lung fibroblast cell line); experiment: Toxicity against MRC-5SV2; type: cell-based
# Procedure: (§2) ADME and toxicity for compounds were measured according to procedures outlined in the manuscript submitted in parallel to this one;2 other procedures were used for those compounds analysed by Monash University (in vitro ADME) or UCL (toxicity), both described in the main
# [5] = tested on: PMM (primary mouse macrophages); experiment: Toxicity against PMM; type: cell-based
# Procedure: as §2
# HEK293 cells = experiment: HEK293 toxicity, 96-well dose-response (UCL; MTT or resazurin, with or without recovery); type: cell-based, human; settings: for spread of Dmax values comparing recovery and non-recovery conditions: 32 μg/mL
# Procedure: (§3) The importance of balancing potency vs MRSA and cytotoxicity led us to examine a subset of compounds more thoroughly for toxicity against human embryonic kidney cell line HEK293. […] Dmax is a parameter that quantifies toxicity at the highest tested concentration (32 μg/mL for all compounds), calculated as reciprocal percentage of viable cells (100 – viability%), where cells either were allowed to recover or viability was measured immediately after treatment. […] Our efforts focused on trying to replicate the original toxicity experiments (by CO-ADD) with tamoxifen using a protocol modified for use with 96-well plates. Given the variability of protocols and results in the literature,[28] it was important to compare with a standard protocol we have reliably used in our own laboratories.[29]−[33] […] Truly “non-toxic” compounds might be expected to show Dmax < 50% for all experiment variations, e.g., 861. […] A large spread of Dmax values comparing recovery and non-recovery conditions larger than 20% is perhaps indicative of a mechanism of toxicity that persists beyond exposure, i.e., cytotoxic compounds that continue to induce toxicity as cells recover and restart dividing, for example, compounds 865, 870, 871, 980, and 981. […] This variability could be driven by interference of the compounds with the fluorescence readout or resorufin build-up as previously described.[27]
# (§4) HEK293 cells (ATCC, UK) at passage 32 were a kind gift from Dr. Ben Allsop from the Translational Research Office at University College London. Cells were tested for mycoplasma using a MycoAlert Detection Kit (Lonza, Switzerland) as per manufacturer instructions, frozen stocks were stored in liquid nitrogen, and cells were re-tested whenever a new aliquot was thawed.
# (§5) Cells were maintained in DMEM (Sigma-Aldrich, UK) supplemented with 10% heat-inactivated FBS (Sigma-Aldrich, UK), 1% GlutaMax (ThermoFisher, UK), and 1% sodium pyruvate (Lonza, UK) without antibiotics in an incubator at 37 °C and 5% CO2. Media was changed every 2 days, and cells were passaged every 3–4 days at a subcultivation ratio of 1:10, by detaching the cells with phenol-free TrypLE Express (ThermoFisher, UK), after washing with HBSS Ca^2+/Mg^2+ (ThermoFisher, UK). Up to 55 passages were used throughout the experiments.
# (§6) (a) Cell seeding: At subculture, a dilute solution of cells was counted using Trypan Blue (Sigma-Aldrich, UK) and a hemocytometer. Cells were further diluted to 7000 or 50 000 cells/mL for experiments.
# (§7) For recovery experiments, 700 cells (100 μL) were seeded in 96-well plates and incubated for 48 h while cells reached exponential phase.
# (§8) For non-recovery experiments, 5000 cells (100 μL) were seeded in 96-well plates and incubated for 48 h while cells reached confluence. This is the same number of cells as per the CO-ADD protocol where 384-well plates were used, but we extended the growth time to 48 h to produce a similar confluency.
# (§9) Stock solutions were diluted 100 times (to 1% DMSO) to 32 μg/mL in full medium (vortexed briefly) and then serially diluted using a digital pipet (Explorer, Eppendorf, Germany) at a dilution factor of 2 to a final concentration of […].
# (§10) (c) Dosing experiments: At the specified time after seeding, media was removed from cells, cells were washed with HBSS Ca^2+/Mg^2+ (100 μL), and 100 μL of diluted compounds were added as per Supporting Information - Biology, Figure S4, and incubated for 24 h.
# (§11) After treatment, solutions were removed, and cells were washed with HBSS Ca^2+/Mg^2+. For non-recovery experiments, viability was determined immediately as described below.
# (§12) For recovery experiments, fresh media was added to plates (100 μL) and cells were returned to the incubator for another 72 h, after which viability was recorded as described below.
# (§13) i. MTT assay: 3-[4,5-Dimethylthiazol-2-yl]-2,5-diphenyltetrazolium bromide (MTT) (Sigma-Aldrich, UK) was dissolved in sterile PBS at 5 mg/mL with sonication (20 min), protected from light. […]
# Aqueous solubility = type: physicochemical; settings: for solubility: thermodynamic from solid
# LogD7.4 (Chrom Log D) = type: physicochemical; settings: chromatographic system (Chrom Log D); pH 7.4, NEU; read-out: LogD 7.4 (NEU)
# Text: To guide our initial SAR exploration work, we obtained liver microsomal intrinsic clearance data for 5 of the 18 compounds assayed by CO-ADD (Supporting Information - CDCO Report and Supporting Information - Biology). We then acquired intrinsic clearance (CLint), plasma protein binding (PPB), and solubility data on further compounds throughout the SAR campaign (Supporting Information - Biology, Tables S3 and S4). […] The more polar compounds (lower LogD) had reduced PPB and were more metabolically stable.
# Table S4. ADME and Pharmacokinetics: compounds only appearing in the Supplementary […]
# MRSA Aqueous HLM CLint Rat Hep CLint
# Cmpd MIC Solubility Human PPB (%) (µL/min/mg (µL/min/10x6 LogD7.4
# (µg/mL) (µM) protein) cells)
# as §2
# [6] = Human plasma protein binding (PPB); type: in vitro ADME; settings: human, plasma
# [7] = Human liver microsome intrinsic clearance; type: in vitro ADME; settings: human liver microsomes, NEU; for microsomal CLint: read-out: HLM CLint (NEU)
# [8] = Rat hepatocyte intrinsic clearance; type: in vitro ADME
# [9] = HEK293 toxicity, 96-well dose-response (UCL; MTT or resazurin, with or without recovery); type: cell-based, human; settings: human, HEK293 cells; read-out: HEK293 CC50
# Procedure: as §3, §4, §5, §6, §7, §8, §9, §10, §11, §12, §13
# [10] = NEU, read-out: Aqueous Solubility (NEU)
# [11] = human plasma, NEU, read-out: Human PPB (NEU) (converted)
# [12] = rat hepatocytes, NEU, read-out: Rat Hep CLint (NEU)
# [13] = read-out: Human PPB (converted)
# [14] = rat, hepatocytes, Figure 4, read-out: Rat Hep CLint
SMILES,MIC ([1]; read-out: MRSA MIC) [µg/mL],MIC ([3]; read-out: VRE MIC) [µg/mL],"MIC ([1]; UCL, read-out: MRSA MIC (UCL)) [µg/mL]",MIC ([3]; read-out: VRE MIC (UCL)) [µg/mL],solubility (Aqueous solubility; [10]) [µM],chromatographic logD (LogD7.4 (Chrom Log D)),"fraction unbound [6, 11]",microsomal CLint [7] [µL/min/mg],"hepatocyte CLint [8, 12] [µL/min/1e6 cells]",MRC5 TC50 [4] [µg/mL],PMM TC50 [5] [µg/mL],spread of Dmax values comparing recovery and non-recovery conditions (HEK293 cells),CC50 at 24 h [9] [µg/mL],further results
c1ccc(-c2nc3ccccn3c2-c2ccc3sccc3c2)nc1 [OSA_000871],–,–,4,8,6,3.3,0.0074,105,> 300,–,–,–,5.5,–
c1cc(-c2nc3n(c2-c2ccc4occc4c2)CCC3)ccn1 [compound 862],> 32,> 32,–,–,–,–,–,–,–,–,–,–,–,"activity against MRSA, in words [1]: inactive; HEK293 toxicity classification, in words (HEK293 cells): least toxic; also recorded: non-toxic; toxicity in the acute exposure by MTT (HEK293 cells; no recovery, MTT): more than 50%"
Cc1ccc(-c2c(-c3ccccn3)nc3n2CCC3)cc1 [OSA_000865],–,–,4,16,–,–,0.084,–,–,–,–,–,2.1,"MIC ([2]; read-out: MSSA MIC (UCL)): 1 µg/mL; Aqueous Solubility (NEU) (Aqueous solubility; NEU): 32 µM; HLM CLint (NEU) [7]: 82 uL/min/mg protein; Rat Hep CLint (NEU) ([8]; rat hepatocytes, NEU): 49.2 uL/min/10x6 cells"
c1cncc(-c2nc3n(c2-c2ccc4occc4c2)CCC3)c1 [compound 861],> 32,> 32,–,–,–,–,–,–,–,–,–,–,–,"activity against MRSA, in words [1]: inactive; HEK293 toxicity classification, in words (HEK293 cells): least toxic; Dmax (100 – viability%) (HEK293 cells; at highest tested concentration 32 μg/mL, all experiment variations): < 50%"
c1ccc(-c2nc3n(c2-c2ccc4occc4c2)CCC3)cc1 [OSA_000869],–,–,> 32,> 32,21,4.2,0.0031,224,34.5,–,–,–,13.7,–
Fc1ccc(Nc2c(-c3ccccn3)nc3sccn23)cc1 [compound 984],–,–,–,–,–,–,–,–,–,2.0,9.9,small difference,–,MRSA MIC [1]: 8 µg/mL; MSSA MIC [2]: 4 µg/mL; VRE MIC [3]: 8 µg/mL
c1cc(-c2nc3n(c2-c2ccc4occc4c2)CCC3)ccn1 [OSA_000862],–,–,> 32,> 32,89,3.2,0.017,36.8,44.5,–,–,–,> 32,–
c1cncc(-c2nc3n(c2-c2ccc4occc4c2)CCC3)c1 [OSA_000861],–,–,> 32,> 32,344,3.2,0.015,35.5,40.8,–,–,–,> 32,–

# Continued, in another order:
MIC ([1]; read-out: MRSA MIC) [µg/mL],MIC ([3]; read-out: VRE MIC) [µg/mL],"MIC ([1]; UCL, read-out: MRSA MIC (UCL)) [µg/mL]",MIC ([3]; read-out: VRE MIC (UCL)) [µg/mL],solubility (Aqueous solubility; [10]) [µM],chromatographic logD (LogD7.4 (Chrom Log D)),"fraction unbound [6, 11]",microsomal CLint [7] [µL/min/mg],"hepatocyte CLint [8, 12] [µL/min/1e6 cells]",SMILES,MRC5 TC50 [4] [µg/mL],PMM TC50 [5] [µg/mL],spread of Dmax values comparing recovery and non-recovery conditions (HEK293 cells),CC50 at 24 h [9] [µg/mL],further results
2,4,–,–,–,–,–,–,–,Fc1ccc(N(CC2CC2)c2c(-c3ccccn3)nc3ccccn23)cc1 [compound 979],2.8,1.4,small difference,–,MIC ([2]; read-out: MSSA MIC): 2 µg/mL; VRE MIC [3]: 4 µg/mL
2,8,–,–,–,–,–,–,–,CC(C)CN(c1ccc(F)cc1)c1c(-c2ccccn2)nc2ccccn12 [compound 983],19.5,8.3,small difference,–,"MIC ([1]; 16 h, read-out: MRSA MIC): 2 µg/mL; MIC ([2]; read-out: MSSA MIC): 4 µg/mL; solubility (Aqueous solubility; read-out: Aqueous Solubility): 8 µM; fraction unbound [6, 13]: 0.004; hepatocyte CLint [8, 14]: 234 µL/min/1e6 cells"
> 32,> 32,–,–,–,–,–,–,–,c1ccc(-c2nc3n(c2-c2ccc4occc4c2)CCC3)cc1 [compound 869],–,–,small difference,–,"activity against MRSA, in words [1]: inactive; HEK293 toxicity classification, in words (HEK293 cells): least toxic"
2,4,–,–,–,–,–,–,–,CCCN(c1ccc(F)cc1)c1c(-c2ccccn2)nc2ccccn12 [compound 982],1.5,0.7,small difference,–,"MIC ([1]; 16 h, read-out: MRSA MIC): 2 µg/mL; MIC ([2]; read-out: MSSA MIC): 2 µg/mL; VRE MIC [3]: 4 µg/mL; solubility (Aqueous solubility; read-out: Aqueous Solubility): 3 µM; fraction unbound [6, 13]: 0.007; hepatocyte CLint [8, 14]: 108 µL/min/1e6 cells"

# From article PMC10714399, “Open Source Antibiotics: Simple Diarylimidazoles Are Potent against Methicillin-Resistant Staphylococcus aureus” (ACS Infectious Diseases, 2023)
